The record followed here is patent publication US7358233B2, “Tetronic acid derivative” (Toudai TLO, Ltd, priority 2001, dated 2008).

The test system of experiment [1] is HT-29 cells. The experiment is described as follows: Combined use of VST and cisplatin, colony-forming ability of HT-29 cells. The class given is cell-based. To be noted: glucose starvation condition. From the text:
Enhancement of endoplasmic reticulum stress response promotes survival of cells under undernutritive conditions, and at the same time allows cells to acquire resistance to antitumor agents. Therefore, the inventors intended to examine the effect of VST on known antitumor agents. […] Therefore, the combined effect with other pharmaceutical agents could not be duly examined. Thus, cisplatin generally used for solid cancer treatment was used to examine the combined effect, due to its activity on cancer cells that is maintained even under low glucose conditions. Specifically, HT-29 cells were cultured by the above-mentioned method, pretreated for 30 min with VST, and then cultured for 18 hours. The cells were then treated for 4 hours with each concentration of cisplatin, and a week later their colony-forming ability was examined.

The subject of experiment [2] is HT-29 cells. Put plainly: Antitumor effect against HT-29 cells transplanted into nude mice. The class given is in vivo. To be noted: HT-29 tumor grown to 100 mm^3 in nude mice; VST through the tail vein (FIG. 15). As to the method:
The antitumor effect of VST at the animal level was examined. Specifically, HT-29 cells were transplanted into nude mice and tumor was grown to 100 mm^3. Subsequently, each concentration of VST was administered through the tail vein, progress of cancer was followed each day thereafter, and the tumor was enucleated to compare its size. […] Furthermore, the combined effect with CDDP (cisplatin) was examined.

As to `N.N.[Cl][Pt][Cl]` [cisplatin, reference compound], the “activity on colony-forming ability under glucose starvation condition” value in the experiment on HT-29 cells [1] is “enhance the activity”. Besides, the “antitumor effect (tumor size)” value in the experiment on HT-29 cells [2] is on record as “sufficient”.
